Experimental data reported in patent US10968269B1, “MHC multimers in borrelia diagnostics and disease” (Agilent Technologies, Inc., priority 2008, dated 2021).

How the values were obtained:
[1] = target: HLA-A*0201-β2m-… peptide-complex (human); assay: sandwich ELISA: W6/32 coated, MHC complex added, HRP rabbit anti-β2m detection; reference: free β2m
[2] = system: T2 cells loaded with Bcl-X(L)173-182 peptide; conditions: different concentrations of peptide, E:T ratio 1:1, FIG. 14; cited from earlier work
[3] = system: Bcl-X(L)-specific, CD8 positive T cells; conditions: PBL from a breast cancer patient, 106 PBL/well in doublets, compared to the absence of added peptide, FIG. 11; cited from earlier work

Row | Substance | OD450 ratio against the negative control β2m [1] [fold] | effect of the peptide on killing of pulsed T2 target cells by clone 9 [2] | ELISPOT detection of BclX(L) specific T-cells (number of spots, IFN-gamma producing T-cells) [3]
1 | W6/32 mouse-anti-HLA-ABC antibody (Dako M0736) | > 6 |  | 
2 | YLNDHLEPWI (listed as Homo sapiens) |  | significant even at low concentrations | clearly shows the presence of BclX(L) specific T-cells
